Here are results for 3 compounds from patent US20040254213A1, “Use of bicyclo compounds for treating alzheimer's disease” (priority 2001, published 2004).

For the compound `CC(C)CN1CC2(Cc3ccccc3)CC(=O)CC(C(O)Cc3ccccc3)(C1)C2O` (racemic) [Compound 16, 5(RS)-methylphenyl-9(RS)-hydroxy-1(RS)-((1′-hydroxy)-2′-phenyl)-ethyl-3-(2″-methyl)propyl-3-azabicyclo[3.3.1] nonan-7-one], the melting point (in general, the temperature, or range, at which the solid turns liquid) lay within 138 to 141 °C.

In turn, `O=C1CC2(Cc3ccccc3)CN(Cc3ccccc3)CC([C@@H](O)Cc3ccccc3)(C1)C2O` (mixture of isomers) [Compound 18, 5(RS)-methylpheny-9(RS)-hydroxy-1(RS)-((1′-hydroxy)-2′-phenyl)-ethyl-3-benzyl-3-azabicyclo[3.3.1]nonan-7-one] registered a melting point of 145.5 to 147 °C.

As to `CC(C)CN1CC2(Cc3ccccc3)CC(=O)CC([C@@H](O)Cc3ccccc3N)(C1)C2O` (mixture of isomers) [Compound 20], the melting point lay in the range of 164 to 165 °C.
